ChEMBL document CHEMBL3991601, “The target landscape of clinical kinase drugs” (Science, 2017)
The source made the active and inactive calls. Rule as the data show it, for most assays here: actives have a measured Kd and inactives only a lower limit.

What was measured:
[1] = molecular target: Mitogen-activated protein kinase kinase kinase 4 (Homo sapiens, UniProt Q9Y6R4)
Deoxycytidine kinase = Deoxycytidine kinase (Homo sapiens, UniProt P27707)
[2] = molecular target: T1, Serine/threonine-protein kinase 3 (Homo sapiens, UniProt Q13188)
T1 sequence (Q13188 whole entry): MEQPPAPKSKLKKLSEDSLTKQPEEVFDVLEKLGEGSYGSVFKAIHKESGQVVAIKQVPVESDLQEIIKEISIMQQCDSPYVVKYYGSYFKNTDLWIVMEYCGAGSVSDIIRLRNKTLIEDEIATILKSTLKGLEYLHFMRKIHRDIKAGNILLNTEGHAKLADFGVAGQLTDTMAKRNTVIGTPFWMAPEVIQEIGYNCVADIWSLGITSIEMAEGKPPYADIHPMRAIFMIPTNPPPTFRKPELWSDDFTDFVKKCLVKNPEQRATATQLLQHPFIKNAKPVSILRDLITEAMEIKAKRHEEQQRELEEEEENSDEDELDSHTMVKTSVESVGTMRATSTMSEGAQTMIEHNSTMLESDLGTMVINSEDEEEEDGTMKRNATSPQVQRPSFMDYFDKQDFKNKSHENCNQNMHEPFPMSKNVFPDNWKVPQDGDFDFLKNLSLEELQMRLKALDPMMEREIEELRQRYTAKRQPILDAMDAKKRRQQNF

LIM domain kinase 2 = LIM domain kinase 2 (Homo sapiens, UniProt P53671)
[3] = molecular target: Cyclin-dependent kinase 3 (Homo sapiens, UniProt Q00526)
[4] = molecular target: Tyrosine-protein kinase CSK (Homo sapiens, UniProt P41240)
Activin receptor type-1 = molecular target: T2, Activin receptor type-1 (Homo sapiens, UniProt Q04771)
T2 sequence (Q04771 whole entry): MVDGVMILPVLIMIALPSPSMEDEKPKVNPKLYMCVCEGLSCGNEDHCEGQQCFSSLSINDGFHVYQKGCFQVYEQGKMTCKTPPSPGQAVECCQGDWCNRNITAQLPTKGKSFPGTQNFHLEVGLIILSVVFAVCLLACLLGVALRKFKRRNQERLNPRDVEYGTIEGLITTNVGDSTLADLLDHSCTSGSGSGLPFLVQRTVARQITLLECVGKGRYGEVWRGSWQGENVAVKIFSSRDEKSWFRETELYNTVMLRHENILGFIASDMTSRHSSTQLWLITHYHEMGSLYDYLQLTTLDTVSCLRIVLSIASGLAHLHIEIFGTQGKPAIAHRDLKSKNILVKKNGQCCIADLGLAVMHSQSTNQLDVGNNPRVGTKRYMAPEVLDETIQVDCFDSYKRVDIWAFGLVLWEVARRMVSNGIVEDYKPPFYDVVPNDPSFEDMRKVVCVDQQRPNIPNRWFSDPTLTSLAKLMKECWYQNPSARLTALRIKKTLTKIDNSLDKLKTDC

[5] = molecular target: Tyrosine-protein kinase Lyn (Homo sapiens, UniProt P07948)
[6] = molecular target: T3, Membrane-associated tyrosine- and threonine-specific cdc2-inhibitory kinase (Homo sapiens, UniProt Q99640)
T3 sequence (Q99640 whole entry): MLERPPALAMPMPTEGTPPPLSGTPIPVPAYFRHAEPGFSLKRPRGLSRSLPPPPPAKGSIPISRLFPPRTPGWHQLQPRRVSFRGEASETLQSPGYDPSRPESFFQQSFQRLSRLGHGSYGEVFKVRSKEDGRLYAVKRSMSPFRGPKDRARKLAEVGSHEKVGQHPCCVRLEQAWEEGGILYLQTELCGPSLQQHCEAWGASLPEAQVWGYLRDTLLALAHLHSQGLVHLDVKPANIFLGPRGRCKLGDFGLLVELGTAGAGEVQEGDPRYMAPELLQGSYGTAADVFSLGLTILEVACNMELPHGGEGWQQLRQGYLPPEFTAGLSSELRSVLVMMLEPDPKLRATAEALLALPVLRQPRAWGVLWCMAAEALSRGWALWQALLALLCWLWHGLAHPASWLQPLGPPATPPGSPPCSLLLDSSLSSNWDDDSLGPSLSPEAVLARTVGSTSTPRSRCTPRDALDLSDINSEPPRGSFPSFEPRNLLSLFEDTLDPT

[7] = molecular target: T4, NUAK family SNF1-like kinase 2 (Homo sapiens, UniProt Q9H093)
T4 sequence (Q9H093 whole entry): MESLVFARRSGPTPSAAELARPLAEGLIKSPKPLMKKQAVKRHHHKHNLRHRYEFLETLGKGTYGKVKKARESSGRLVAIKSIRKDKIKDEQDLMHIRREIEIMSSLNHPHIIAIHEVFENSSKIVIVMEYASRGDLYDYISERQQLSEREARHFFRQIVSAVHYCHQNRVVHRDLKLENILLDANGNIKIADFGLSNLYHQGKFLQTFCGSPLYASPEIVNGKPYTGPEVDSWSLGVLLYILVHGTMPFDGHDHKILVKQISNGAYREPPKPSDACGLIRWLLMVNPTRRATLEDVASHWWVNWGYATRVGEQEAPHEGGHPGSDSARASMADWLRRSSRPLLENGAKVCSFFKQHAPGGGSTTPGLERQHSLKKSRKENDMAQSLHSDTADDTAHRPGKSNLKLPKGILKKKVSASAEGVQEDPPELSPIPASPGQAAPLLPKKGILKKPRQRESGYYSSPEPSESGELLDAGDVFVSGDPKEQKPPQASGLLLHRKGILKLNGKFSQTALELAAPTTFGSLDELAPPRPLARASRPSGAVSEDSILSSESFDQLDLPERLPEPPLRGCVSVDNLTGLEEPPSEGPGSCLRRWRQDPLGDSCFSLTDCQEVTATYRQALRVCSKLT
Also: in the data inactive means no Kd found up to 30 µM.

Chain of LIM domain kinase 2 (P53671 whole entry, the tested form may be a part): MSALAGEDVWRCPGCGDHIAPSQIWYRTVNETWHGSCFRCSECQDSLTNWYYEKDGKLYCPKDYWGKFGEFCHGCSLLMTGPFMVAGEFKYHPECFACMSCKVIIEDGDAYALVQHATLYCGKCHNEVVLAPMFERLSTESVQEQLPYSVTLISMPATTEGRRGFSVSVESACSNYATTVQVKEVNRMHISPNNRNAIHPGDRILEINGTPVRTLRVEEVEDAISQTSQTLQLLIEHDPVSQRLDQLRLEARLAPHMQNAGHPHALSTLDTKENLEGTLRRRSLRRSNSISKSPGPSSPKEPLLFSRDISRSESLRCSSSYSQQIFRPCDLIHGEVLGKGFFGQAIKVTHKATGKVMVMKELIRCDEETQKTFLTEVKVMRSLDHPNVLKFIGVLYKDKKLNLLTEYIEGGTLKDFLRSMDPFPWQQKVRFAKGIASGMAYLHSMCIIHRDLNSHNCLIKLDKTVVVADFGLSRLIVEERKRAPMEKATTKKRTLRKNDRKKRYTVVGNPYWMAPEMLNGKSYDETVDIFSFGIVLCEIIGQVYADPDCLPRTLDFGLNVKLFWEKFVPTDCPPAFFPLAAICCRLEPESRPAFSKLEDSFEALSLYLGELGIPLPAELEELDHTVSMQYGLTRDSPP
Chain of Tyrosine-protein kinase Lyn (P07948 whole entry): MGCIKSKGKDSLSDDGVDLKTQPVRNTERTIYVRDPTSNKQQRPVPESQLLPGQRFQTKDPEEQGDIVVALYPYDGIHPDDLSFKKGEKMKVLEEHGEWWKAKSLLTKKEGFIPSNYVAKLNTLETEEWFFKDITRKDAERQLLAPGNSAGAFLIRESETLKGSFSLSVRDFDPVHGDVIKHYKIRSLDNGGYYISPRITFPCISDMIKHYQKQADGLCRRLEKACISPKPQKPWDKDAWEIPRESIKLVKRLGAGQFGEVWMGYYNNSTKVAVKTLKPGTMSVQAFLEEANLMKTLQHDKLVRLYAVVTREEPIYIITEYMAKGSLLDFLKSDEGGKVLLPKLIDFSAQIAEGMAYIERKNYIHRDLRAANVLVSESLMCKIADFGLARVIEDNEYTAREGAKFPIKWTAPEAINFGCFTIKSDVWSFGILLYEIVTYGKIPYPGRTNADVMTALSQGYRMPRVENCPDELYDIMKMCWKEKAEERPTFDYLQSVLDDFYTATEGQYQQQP
Chain of Cyclin-dependent kinase 3 (Q00526 whole entry): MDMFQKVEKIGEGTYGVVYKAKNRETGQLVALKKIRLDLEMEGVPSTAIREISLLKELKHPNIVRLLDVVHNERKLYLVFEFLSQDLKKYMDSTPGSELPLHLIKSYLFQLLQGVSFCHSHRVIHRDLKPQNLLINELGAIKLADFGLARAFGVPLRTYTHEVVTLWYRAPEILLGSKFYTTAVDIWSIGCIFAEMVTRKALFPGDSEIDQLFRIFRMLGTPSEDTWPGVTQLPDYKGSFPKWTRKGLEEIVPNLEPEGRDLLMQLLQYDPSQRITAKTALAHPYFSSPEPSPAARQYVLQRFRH
Chain of Deoxycytidine kinase (P27707 whole entry): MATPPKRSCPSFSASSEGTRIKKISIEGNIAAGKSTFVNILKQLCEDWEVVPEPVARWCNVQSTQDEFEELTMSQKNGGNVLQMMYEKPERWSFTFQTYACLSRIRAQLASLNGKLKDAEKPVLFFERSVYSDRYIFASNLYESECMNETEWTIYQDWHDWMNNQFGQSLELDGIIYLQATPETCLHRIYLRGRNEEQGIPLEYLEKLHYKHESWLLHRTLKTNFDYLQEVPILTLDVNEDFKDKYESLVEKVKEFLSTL
Chain of Mitogen-activated protein kinase kinase kinase 4 (Q9Y6R4 whole entry): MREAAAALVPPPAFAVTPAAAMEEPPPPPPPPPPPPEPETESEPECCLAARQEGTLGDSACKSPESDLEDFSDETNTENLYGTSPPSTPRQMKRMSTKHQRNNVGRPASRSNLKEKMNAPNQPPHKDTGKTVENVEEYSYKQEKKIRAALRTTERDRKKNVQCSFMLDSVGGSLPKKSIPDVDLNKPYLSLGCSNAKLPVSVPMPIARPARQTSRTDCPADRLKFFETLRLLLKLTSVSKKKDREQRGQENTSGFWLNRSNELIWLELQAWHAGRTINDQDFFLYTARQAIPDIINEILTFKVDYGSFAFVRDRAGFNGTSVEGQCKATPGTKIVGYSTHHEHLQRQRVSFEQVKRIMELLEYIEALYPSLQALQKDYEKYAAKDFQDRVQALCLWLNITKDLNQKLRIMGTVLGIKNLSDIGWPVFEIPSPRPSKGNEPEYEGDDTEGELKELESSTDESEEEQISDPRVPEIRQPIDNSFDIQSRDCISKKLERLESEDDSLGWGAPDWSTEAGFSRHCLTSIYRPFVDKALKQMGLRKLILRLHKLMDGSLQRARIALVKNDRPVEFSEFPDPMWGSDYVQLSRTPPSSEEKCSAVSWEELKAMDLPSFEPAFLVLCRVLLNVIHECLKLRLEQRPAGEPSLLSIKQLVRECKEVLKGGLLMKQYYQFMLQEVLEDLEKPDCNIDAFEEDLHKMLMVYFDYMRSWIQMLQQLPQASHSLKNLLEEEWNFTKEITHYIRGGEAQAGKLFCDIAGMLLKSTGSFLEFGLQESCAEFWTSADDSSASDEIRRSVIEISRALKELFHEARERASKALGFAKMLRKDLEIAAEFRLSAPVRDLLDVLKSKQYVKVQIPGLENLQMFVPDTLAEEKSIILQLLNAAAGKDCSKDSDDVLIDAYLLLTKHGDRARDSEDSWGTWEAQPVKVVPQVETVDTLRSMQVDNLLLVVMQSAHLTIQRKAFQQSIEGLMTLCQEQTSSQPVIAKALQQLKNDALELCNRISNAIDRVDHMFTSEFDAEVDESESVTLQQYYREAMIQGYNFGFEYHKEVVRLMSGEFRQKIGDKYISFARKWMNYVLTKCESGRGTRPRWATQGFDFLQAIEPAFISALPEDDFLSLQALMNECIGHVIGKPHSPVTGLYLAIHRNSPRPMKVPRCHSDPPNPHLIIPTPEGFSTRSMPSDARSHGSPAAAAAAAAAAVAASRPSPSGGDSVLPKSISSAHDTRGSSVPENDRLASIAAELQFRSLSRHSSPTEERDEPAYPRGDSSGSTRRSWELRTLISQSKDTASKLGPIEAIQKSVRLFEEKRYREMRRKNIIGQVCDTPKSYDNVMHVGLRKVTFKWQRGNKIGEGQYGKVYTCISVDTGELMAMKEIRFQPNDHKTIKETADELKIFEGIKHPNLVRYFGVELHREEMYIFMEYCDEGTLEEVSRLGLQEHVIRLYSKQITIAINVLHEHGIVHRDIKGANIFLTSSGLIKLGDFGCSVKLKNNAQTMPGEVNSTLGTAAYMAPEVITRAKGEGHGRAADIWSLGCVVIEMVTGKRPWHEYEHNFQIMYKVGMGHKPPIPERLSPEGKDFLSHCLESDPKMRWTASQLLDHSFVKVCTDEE

Kd [1] | Kd (Deoxycytidine kinase) | Kd [2] | Kd (LIM domain kinase 2) | Kd [3] | Kd [4] | Kd (Activin receptor type-1) | Kd [5] | Kd [6] | Kd [7] | Compound
> 30 µM (inactive) | > 30 µM (inactive) | > 30 µM (inactive) | > 30 µM (inactive) | > 30 µM (inactive) | > 30 µM (inactive) | > 30 µM (inactive) | > 30 µM (inactive) | > 30 µM (inactive) | > 30 µM (inactive) | FC(F)(F)c1ccc(CNc2ccc(Cc3c[nH]c4ncc(Cl)cc34)cn2)cn1 [PEXIDARTINIB]
> 30 µM (inactive) | > 30 µM (inactive) | > 30 µM (inactive) | > 30 µM (inactive) | > 30 µM (inactive) | > 30 µM (inactive) | > 30 µM (inactive) | > 30 µM (inactive) | > 30 µM (inactive) | > 30 µM (inactive) | S=C(NCc1ccc2c(c1)OCO2)N1CCN(c2ncnc3c2oc2ccccc23)CC1 [AMUVATINIB]
> 30 µM (inactive) | > 30 µM (inactive) | > 30 µM (inactive) | > 30 µM (inactive) | > 30 µM (inactive) | > 30 µM (inactive) | > 30 µM (inactive) | > 30 µM (inactive) | > 30 µM (inactive) | > 30 µM (inactive) | C=CC(=O)Nc1cccc(Nc2nc(Nc3ccc(N4CCN(C(C)=O)CC4)cc3OC)ncc2C(F)(F)F)c1 [ROCILETINIB]
> 30 µM (inactive) | > 30 µM (inactive) | 0.86 µM (active) | > 30 µM (inactive) | 0.942 µM | > 30 µM (inactive) | > 30 µM (inactive) | > 30 µM (inactive) | > 30 µM (inactive) | > 30 µM (inactive) | Cc1cc(Nc2nc(N[C@@H](C)c3ncc(F)cn3)ncc2Cl)n[nH]1 [AZD-1480]
> 30 µM (inactive) | > 30 µM (inactive) | > 30 µM (inactive) | > 30 µM (inactive) | > 30 µM (inactive) | > 30 µM (inactive) | > 30 µM (inactive) | > 30 µM (inactive) | > 30 µM (inactive) | > 30 µM (inactive) | O=S(=O)(c1cccc2c(O)nccc12)N1CCCNCC1 [HYDROXYFASUDIL]
> 30 µM (inactive) | > 30 µM (inactive) | > 30 µM (inactive) | > 30 µM (inactive) | > 30 µM (inactive) | > 30 µM (inactive) | > 30 µM (inactive) | > 30 µM (inactive) | > 30 µM (inactive) | > 30 µM (inactive) | C[C@@H]1COC(Nc2ccc3ncnc(Nc4ccc(OCc5nccs5)c(Cl)c4)c3c2)=N1 [VARLITINIB]
> 30 µM (inactive) | > 30 µM (inactive) | > 30 µM (inactive) | > 30 µM (inactive) | > 30 µM (inactive) | > 30 µM (inactive) | > 30 µM (inactive) | > 30 µM (inactive) | > 30 µM (inactive) | > 30 µM (inactive) | O=c1[nH]c([C@@H]2CCCN2)nc2c1oc1ccc(Cl)cc12
> 30 µM (inactive) | > 30 µM (inactive) | > 30 µM (inactive) | > 30 µM (inactive) | > 30 µM (inactive) | > 30 µM (inactive) | > 30 µM (inactive) | > 30 µM (inactive) | > 30 µM (inactive) | > 30 µM (inactive) | O=C(O)c1ccc2c(c1)nc(Nc1cccc(Cl)c1)c1ccncc12 [SILMITASERTIB]
> 30 µM (inactive) | > 30 µM (inactive) | > 30 µM (inactive) | > 30 µM (inactive) | > 30 µM (inactive) | > 30 µM (inactive) | > 30 µM (inactive) | > 30 µM (inactive) | > 30 µM (inactive) | > 30 µM (inactive) | CC[C@@](C)(Nc1ccnc(-c2c[nH]c3ncccc23)n1)C(=O)NCC(F)(F)F [DECERNOTINIB]
> 30 µM (inactive) | > 30 µM (inactive) | > 30 µM (inactive) | > 30 µM (inactive) | > 30 µM (inactive) | > 30 µM (inactive) | > 30 µM (inactive) | > 30 µM (inactive) | > 30 µM (inactive) | > 30 µM (inactive) | CCc1cc2c(cc1N1CCC(N3CCOCC3)CC1)C(C)(C)c1[nH]c3cc(C#N)ccc3c1C2=O [ALECTINIB]

Compound | Kd [1] | Kd (Deoxycytidine kinase) | Kd [2] | Kd (LIM domain kinase 2) | Kd [3] | Kd [4] | Kd (Activin receptor type-1) | Kd [5] | Kd [6] | Kd [7]
COc1cc(F)c(F)c(Nc2ccc(I)cc2F)c1NS(=O)(=O)C1(C[C@H](O)CO)CC1 [REFAMETINIB] | > 30 µM (inactive) | > 30 µM (inactive) | > 30 µM (inactive) | > 30 µM (inactive) | > 30 µM (inactive) | > 30 µM (inactive) | > 30 µM (inactive) | > 30 µM (inactive) | > 30 µM (inactive) | > 30 µM (inactive)
CC1(COc2ccc3c(c2)ncn3-c2ccc3cccc(N4CCC(N)CC4)c3n2)COC1 [CRENOLANIB] | > 30 µM (inactive) | > 30 µM (inactive) | 0.743 µM (active) | > 30 µM (inactive) | 1.07 µM (active) | > 30 µM (inactive) | > 30 µM (inactive) | > 30 µM (inactive) | > 30 µM (inactive) | > 30 µM (inactive)
CC(C)CC(=O)Nc1[nH]nc2c1CN(C(=O)C1CCN(C)CC1)C2(C)C [PHA-793887] | > 30 µM (inactive) | > 30 µM (inactive) | > 30 µM (inactive) | > 30 µM (inactive) | 0.008 µM (active) | > 30 µM (inactive) | > 30 µM (inactive) | > 30 µM (inactive) | > 30 µM (inactive) | > 30 µM (inactive)
Cc1c(NC(=O)OC[C@@H]2COCCN2)cn2ncnc(Nc3ccc4c(cnn4Cc4cccc(F)c4)c3)c12 [AC-480] | > 30 µM (inactive) | > 30 µM (inactive) | > 30 µM (inactive) | > 30 µM (inactive) | > 30 µM (inactive) | > 30 µM (inactive) | > 30 µM (inactive) | > 30 µM (inactive) | > 30 µM (inactive) | > 30 µM (inactive)
COCCN1CCN(Cc2ccc(-c3n[nH]c4c3C(=O)c3c(NC(=O)NN5CCOCC5)cccc3-4)cc2)CC1 [RGB-286638] | > 30 µM (inactive) | > 30 µM (inactive) | > 30 µM (inactive) | > 30 µM (inactive) | > 30 µM (inactive) | > 30 µM (inactive) | > 30 µM (inactive) | > 30 µM (inactive) | > 30 µM (inactive) | > 30 µM (inactive)
